Results reported in ChEMBL document CHEMBL1201862, “PubChem BioAssay data set” (2004).
Activity calls are given as the source filed them.

Legend:
HEK293 [1] = experiment: membrane integrity loss in HEK cells – cell-based, fluorescence, cytotoxicity control for IDE activator project, dose response (AID 588440); format: functional; conditions: Homo sapiens;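 further: cytotoxicity by LDH release measuring loss of membrane integrity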
HEK293 [2] = experiment: optical interference in Abeta FP readout, dose response, artefact control for IDE activator project, biochemical, fluorescence polarization (AID 588442); format: functional, cell-based; conditions: Homo sapiens
Insulin-degrading enzyme [3] = target: T1, Insulin-degrading enzyme (Homo sapiens, UniProt P14735); experiment: recombinant IDE activation, cell-free – biochemical, fluorescence polarization, counter-screen for IDE activator project, dose response (AID 588681)
T1 sequence (P14735 whole entry): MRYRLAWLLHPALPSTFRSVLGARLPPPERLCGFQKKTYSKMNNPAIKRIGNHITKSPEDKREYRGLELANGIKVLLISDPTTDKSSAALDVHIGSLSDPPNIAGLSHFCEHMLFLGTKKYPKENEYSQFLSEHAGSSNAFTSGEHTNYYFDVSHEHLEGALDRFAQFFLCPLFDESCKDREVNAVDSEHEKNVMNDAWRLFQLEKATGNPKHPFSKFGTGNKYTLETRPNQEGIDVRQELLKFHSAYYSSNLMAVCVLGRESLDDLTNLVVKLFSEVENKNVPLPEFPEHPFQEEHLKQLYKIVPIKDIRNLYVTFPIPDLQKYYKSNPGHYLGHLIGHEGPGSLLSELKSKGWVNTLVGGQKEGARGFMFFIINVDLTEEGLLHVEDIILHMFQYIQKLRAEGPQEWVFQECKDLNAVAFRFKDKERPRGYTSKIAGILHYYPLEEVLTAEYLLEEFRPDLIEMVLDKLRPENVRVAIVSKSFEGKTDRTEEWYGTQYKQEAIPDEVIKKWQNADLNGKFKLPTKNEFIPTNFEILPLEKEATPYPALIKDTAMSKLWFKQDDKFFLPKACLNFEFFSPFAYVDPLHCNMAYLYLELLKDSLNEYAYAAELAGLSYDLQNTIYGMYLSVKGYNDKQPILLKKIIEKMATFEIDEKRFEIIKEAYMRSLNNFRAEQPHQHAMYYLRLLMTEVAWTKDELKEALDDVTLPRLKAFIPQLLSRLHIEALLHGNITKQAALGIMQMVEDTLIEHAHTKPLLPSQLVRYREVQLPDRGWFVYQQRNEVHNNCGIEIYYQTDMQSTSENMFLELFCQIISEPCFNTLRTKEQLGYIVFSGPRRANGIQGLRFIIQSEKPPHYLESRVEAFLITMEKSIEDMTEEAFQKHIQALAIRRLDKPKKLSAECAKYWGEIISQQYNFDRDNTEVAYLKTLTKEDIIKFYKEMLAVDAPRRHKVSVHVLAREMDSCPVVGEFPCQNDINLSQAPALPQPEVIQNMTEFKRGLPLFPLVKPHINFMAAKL

Insulin-degrading enzyme [4] = target: T1, Insulin-degrading enzyme; experiment: cellular IDE activation of Abeta substrate cleavage – fluorescence polarization, HEK cells, dose response (AID 588439); format: functional, cell-based
[5] = target: Latent membrane protein 1 (Human herpesvirus 4 (strain B95-8), UniProt P03230); experiment: LMP1 TES1 pathway selectivity over dsRED control – imaging, HEK293T, dual-color eGFP/dsRED, cherry-picks, selectivity assay for LMP1 NF-kB inhibitor project, dose response (AID 588398); format: functional, cell-based
Latent membrane protein 1, sequence (P03230 whole entry): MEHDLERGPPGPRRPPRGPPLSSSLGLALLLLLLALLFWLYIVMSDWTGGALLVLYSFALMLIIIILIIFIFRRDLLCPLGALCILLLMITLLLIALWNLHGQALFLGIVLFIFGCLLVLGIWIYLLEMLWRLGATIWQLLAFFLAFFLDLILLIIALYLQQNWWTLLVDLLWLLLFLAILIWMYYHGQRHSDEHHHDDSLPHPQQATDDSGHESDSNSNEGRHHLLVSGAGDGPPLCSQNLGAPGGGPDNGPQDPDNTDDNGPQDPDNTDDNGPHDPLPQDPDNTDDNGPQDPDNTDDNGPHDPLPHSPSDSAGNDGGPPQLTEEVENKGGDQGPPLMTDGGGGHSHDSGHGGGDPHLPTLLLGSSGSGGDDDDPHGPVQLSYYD

Caspase-3 [6] = target: T2, Caspase-3 (Homo sapiens, UniProt P42574); experiment: inhibition of recombinant caspase-3 activity – biochemical, luminescence, set 2, selectivity assay for SENP protease inhibitor project, SAR follow-up (AID 588599); format: functional
T2 sequence (P42574 whole entry): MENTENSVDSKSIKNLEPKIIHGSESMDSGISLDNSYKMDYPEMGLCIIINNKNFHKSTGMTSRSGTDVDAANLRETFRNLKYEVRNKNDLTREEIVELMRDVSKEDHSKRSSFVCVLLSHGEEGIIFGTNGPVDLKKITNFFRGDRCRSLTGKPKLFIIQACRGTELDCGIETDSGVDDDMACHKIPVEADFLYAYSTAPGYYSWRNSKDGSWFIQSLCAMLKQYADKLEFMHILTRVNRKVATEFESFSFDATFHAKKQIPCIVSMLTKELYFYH

[7] = target: T3, Sentrin-specific protease 8 (Homo sapiens, UniProt Q96LD8); experiment: inhibition of sentrin protease 8 – biochemical, luminescence, set 2, SAR follow-up (AID 588601); format: functional
T3 sequence (Q96LD8 whole entry): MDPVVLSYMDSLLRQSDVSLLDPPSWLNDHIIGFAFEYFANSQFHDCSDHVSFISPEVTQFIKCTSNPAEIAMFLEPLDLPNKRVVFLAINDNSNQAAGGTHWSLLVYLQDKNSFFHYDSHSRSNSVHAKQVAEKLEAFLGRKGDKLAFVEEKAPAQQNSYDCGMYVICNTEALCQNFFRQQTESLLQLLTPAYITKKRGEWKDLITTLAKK

[8] = target: T4, Sentrin-specific protease 7 (Homo sapiens, UniProt Q9BQF6); experiment: inhibition of human SENP7 cleavage activity – biochemical, luminescence, SAR follow-up (AID 504497); format: functional
T4 sequence (Q9BQF6 whole entry): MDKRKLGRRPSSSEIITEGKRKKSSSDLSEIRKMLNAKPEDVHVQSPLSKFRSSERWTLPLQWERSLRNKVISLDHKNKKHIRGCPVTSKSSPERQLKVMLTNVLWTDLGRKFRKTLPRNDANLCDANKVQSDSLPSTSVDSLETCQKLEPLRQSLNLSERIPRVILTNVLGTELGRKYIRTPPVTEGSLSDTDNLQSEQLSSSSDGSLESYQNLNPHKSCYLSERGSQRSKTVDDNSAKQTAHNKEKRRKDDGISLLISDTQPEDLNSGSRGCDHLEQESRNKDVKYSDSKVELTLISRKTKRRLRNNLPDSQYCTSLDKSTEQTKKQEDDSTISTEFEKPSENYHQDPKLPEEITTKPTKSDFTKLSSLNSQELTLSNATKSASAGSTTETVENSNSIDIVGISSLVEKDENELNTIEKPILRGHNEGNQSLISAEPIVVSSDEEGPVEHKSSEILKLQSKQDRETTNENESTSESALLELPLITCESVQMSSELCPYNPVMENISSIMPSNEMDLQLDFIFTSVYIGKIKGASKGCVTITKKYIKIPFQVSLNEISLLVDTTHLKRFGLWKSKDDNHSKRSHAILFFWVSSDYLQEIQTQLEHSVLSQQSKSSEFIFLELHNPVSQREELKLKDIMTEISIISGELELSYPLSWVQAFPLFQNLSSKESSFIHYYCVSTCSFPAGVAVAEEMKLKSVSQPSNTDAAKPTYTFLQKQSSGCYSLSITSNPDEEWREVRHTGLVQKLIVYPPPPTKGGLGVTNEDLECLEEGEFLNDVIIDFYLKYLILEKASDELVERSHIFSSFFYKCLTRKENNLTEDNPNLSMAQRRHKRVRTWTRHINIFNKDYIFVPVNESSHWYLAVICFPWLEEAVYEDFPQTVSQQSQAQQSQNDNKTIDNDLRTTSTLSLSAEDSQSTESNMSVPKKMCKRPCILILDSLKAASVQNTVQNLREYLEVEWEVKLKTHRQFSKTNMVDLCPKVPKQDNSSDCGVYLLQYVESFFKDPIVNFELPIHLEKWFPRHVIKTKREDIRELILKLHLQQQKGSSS

[9] = target: T5, Sentrin-specific protease 6 (Homo sapiens, UniProt Q9GZR1); experiment: SAR Analysis of small molecule inhibitors of Sentrin-specific protease 6 (SENP6) using a Luminescent assay. [Related pubchem assays (depositor defined):AID2582, AID2599]; format: functional
T5 sequence (Q9GZR1 whole entry): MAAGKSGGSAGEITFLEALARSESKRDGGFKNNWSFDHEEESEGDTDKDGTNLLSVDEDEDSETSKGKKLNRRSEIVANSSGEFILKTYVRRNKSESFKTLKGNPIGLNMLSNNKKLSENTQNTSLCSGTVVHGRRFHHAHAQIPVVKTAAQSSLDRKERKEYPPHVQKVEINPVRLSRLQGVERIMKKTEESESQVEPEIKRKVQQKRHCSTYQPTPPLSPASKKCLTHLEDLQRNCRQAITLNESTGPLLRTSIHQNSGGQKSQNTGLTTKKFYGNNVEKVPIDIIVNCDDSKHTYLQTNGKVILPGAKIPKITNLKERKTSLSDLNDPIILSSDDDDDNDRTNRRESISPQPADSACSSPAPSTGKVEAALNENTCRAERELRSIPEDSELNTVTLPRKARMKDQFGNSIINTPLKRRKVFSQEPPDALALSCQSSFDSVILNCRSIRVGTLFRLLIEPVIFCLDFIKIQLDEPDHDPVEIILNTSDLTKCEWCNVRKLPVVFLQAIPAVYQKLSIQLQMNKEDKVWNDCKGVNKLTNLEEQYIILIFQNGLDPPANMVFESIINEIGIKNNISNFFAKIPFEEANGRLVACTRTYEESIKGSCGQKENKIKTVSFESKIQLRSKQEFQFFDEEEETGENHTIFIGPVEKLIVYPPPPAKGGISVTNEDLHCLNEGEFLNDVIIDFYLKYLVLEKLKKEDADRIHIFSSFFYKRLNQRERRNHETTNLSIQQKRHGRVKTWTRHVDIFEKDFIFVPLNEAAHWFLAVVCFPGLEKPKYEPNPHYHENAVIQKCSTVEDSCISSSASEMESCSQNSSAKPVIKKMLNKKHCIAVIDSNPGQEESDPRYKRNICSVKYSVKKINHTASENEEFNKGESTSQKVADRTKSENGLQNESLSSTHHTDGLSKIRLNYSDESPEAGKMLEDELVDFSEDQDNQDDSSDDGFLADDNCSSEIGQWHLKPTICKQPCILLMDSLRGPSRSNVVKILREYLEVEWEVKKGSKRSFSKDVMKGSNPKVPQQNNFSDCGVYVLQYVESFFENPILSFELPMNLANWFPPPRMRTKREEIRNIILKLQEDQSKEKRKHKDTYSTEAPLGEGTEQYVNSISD

Caspase-3 [10] = target: T2, Caspase-3; experiment: SAR Analysis of small molecule inhibitors of Sentrin-specific proteases (SENPs) using a Caspase-3 Selectivity assay. [Related pubchem assays (depositor defined):AID2540, AID2599, AID434973, AID489001]; format: functional
[11] = target: T3, Sentrin-specific protease 8; experiment: inhibition of human SENP8 cleavage activity – biochemical, luminescence, SAR follow-up (AID 504501); format: functional
[12] = target: T5, Sentrin-specific protease 6; experiment: inhibition of human SENP6 catalytic domain – biochemical, luminescence, set 2, SAR follow-up (AID 588598); format: functional
[13] = loss of viability in HepG2 cells – cell-based, CellTiter-Glo, cherry-picked, cytotoxicity control for Shn3 inhibitor project, dose response (AID 624134); format: functional
[14] = blockers of bursicon-stimulated LGR2 cAMP reporter – cell-based, HEK293, CRE-luciferase reporter, cherry pick, set 2, dose response (AID 743343); format: functional;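 further: transfected cells were stimulated with diluted bursicon conditioned medium after compound addition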
[15] = non-specific 3'UTR reporter inhibition in Clone20-Shn3RL – cell-based, Renilla luciferase, cherry-picked, counter-screen for Shn3 inhibitor project, dose response (AID 624133); format: functional
HEK293 [16] = experiment: EBV LMP1 TES2 canonical NF-kB signalling blockers – cell-based, HEK293, luciferase, cherry-pick, dose response (AID 588343); format: functional; conditions: Homo sapiens
[17] = viability loss in HEK293 cells – cell-based, plate reader, cherry-picked samples, cytotoxicity control, dose response (AID 743446); format: functional
[18] = toxicity toward HepG2 liver cells – cell-based, plate reader, cherry-pick, antagonist series, cytotoxicity control, dose response (AID 743416); format: functional
[19] = viability loss in HEK293T cells – cell-based, cherry-picks, cytotoxicity control for HIV Vif inhibitor project, dose response (AID 652208); format: functional
[20] = A549 cell cytotoxicity, dose response, cytotoxicity control, plate reader, cherry-pick, antagonist series (AID 743412); format: functional, cell-based
[21] = reduction of Shn3 3'UTR-driven luciferase in osteoblasts – cell-based, Clone20 osteoblasts, firefly luciferase, cherry-picked, dose response (AID 624132); format: functional;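 further: firefly luciferase luminescence from reporter carrying the Shn3 3'UTR in osteoblasts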
[22] = target: Protein disulfide-isomerase (Homo sapiens, UniProt P07237); experiment: inhibition of PDI-driven insulin aggregation – biochemical, turbidity, absorbance, cherry-picked samples, dose response (AID 602350); format: functional
Protein disulfide-isomerase, sequence (P07237 whole entry): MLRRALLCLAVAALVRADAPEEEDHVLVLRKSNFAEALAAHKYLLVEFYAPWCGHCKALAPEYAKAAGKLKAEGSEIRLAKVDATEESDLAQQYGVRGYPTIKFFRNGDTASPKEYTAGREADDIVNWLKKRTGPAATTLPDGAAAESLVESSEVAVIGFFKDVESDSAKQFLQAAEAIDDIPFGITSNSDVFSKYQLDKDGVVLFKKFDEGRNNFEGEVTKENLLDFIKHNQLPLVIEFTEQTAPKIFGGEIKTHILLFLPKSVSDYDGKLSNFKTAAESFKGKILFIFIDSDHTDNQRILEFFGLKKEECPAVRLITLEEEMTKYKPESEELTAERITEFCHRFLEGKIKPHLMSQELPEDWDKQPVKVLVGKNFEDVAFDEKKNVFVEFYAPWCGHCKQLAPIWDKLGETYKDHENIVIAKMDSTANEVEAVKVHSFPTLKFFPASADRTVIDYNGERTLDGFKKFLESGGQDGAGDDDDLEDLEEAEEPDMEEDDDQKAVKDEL

O=C(CN1C(=O)COc2ccc(S(=O)(=O)N3CCCC3)cc21)NCc1ccccn1
IC50 (HEK293 [1]): > 89.2 µM (inactive) | EC50 (HEK293 [2]): > 54.7 µM (inactive) | EC50 (Insulin-degrading enzyme [3]): > 54.7 µM (inactive) | EC50 (Insulin-degrading enzyme [4]): > 54.7 µM (inactive)

COc1ccc(C)cc1S(=O)(=O)N(CC(=O)Nc1cc([N+](=O)[O-])ccc1C)c1ccc(C)c(C)c1
AC50 [5]: 29.5 µM (active)

CN(C)c1ccc(/C=C/c2noc(-c3ccccc3O)n2)cc1
IC50 (Caspase-3 [6]): 1.16 µM (active) | IC50 [7]: 1.42 µM (active) | IC50 [8]: 1.7 µM (active) | IC50 [9]: 1.9 µM (active) | IC50 (Caspase-3 [10]): 1.3 µM (active) | IC50 [11]: 2.1 µM (active) | IC50 [12]: 1.45 µM (active)

CC(C)(O)C#Cc1ccccc1C(=O)NC(CC(N)=O)C(=O)O (configuration not stated)
IC50 (HEK293 [1]): > 89.2 µM (inactive) | EC50 (HEK293 [2]): > 55.9 µM (inactive) | EC50 (Insulin-degrading enzyme [3]): > 54.7 µM (inactive) | EC50 (Insulin-degrading enzyme [4]): > 54.7 µM (inactive)

CC(C)OC(=O)c1ccc(NCc2cc(O)ccc2O)cc1Cl
AC50 [13]: 33.5 µM (active) | AC50 [14]: 49.2 µM (active) | AC50 [15]: 4.45 µM (active) | AC50 (HEK293 [16]): 10.9 µM (active) | AC50 [5]: 9.48 µM (active) | AC50 [17]: 4.76 µM (active) | AC50 [18]: 23.6 µM (active) | AC50 [19]: 6.42 µM (active) | AC50 [20]: 17 µM (active) | AC50 [21]: 2.15 µM (active)

O=C(NC(Cc1ccc(O)cc1)C(=O)N=Nc1c(O)[nH]c2ccccc12)c1ccccc1 (configuration not stated)
AC50 [22]: 19.5 µM (active)
